Measurements published in PubChem BioAssay (NCI).
Several values for one entry are separate records, joined by “and”; a condition that tells them apart may be missing. Equal entries are not always repeated.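 48-hour exposure; five concentrations; linearly interpolated endpoints. GI50: concentration for 50% inhibition of growth. The concentration for full growth arrest is given as TGI.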

Columns and labels:
Experiment in all cases: DTP human tumour cell line panel, 48 h
HCT-116 colon = tested on: HCT-116 colon
HCT-15 colon = tested on: HCT-15 colon
HT29 colon = tested on: HT29 colon
MCF7 breast = tested on: MCF7 breast
MDA-MB-435 = tested on: MDA-MB-435
OVCAR-3 ovarian = tested on: OVCAR-3 ovarian
OVCAR-8 ovarian = tested on: OVCAR-8 ovarian
SK-MEL-5 melanoma = tested on: SK-MEL-5 melanoma
SK-OV-3 ovarian = tested on: SK-OV-3 ovarian
UACC-62 melanoma = tested on: UACC-62 melanoma
BT-549 breast = tested on: BT-549 breast

Row | SMILES | TGI (HCT-116 colon) [µM] | TGI (HCT-15 colon) | TGI (HT29 colon) [µM] | TGI (MCF7 breast) [µM] | TGI (MDA-MB-435) | TGI (OVCAR-3 ovarian) | TGI (OVCAR-8 ovarian) [µM] | TGI (SK-MEL-5 melanoma) | TGI (SK-OV-3 ovarian) | TGI (UACC-62 melanoma) | TGI (BT-549 breast) | GI50 (BT-549 breast) [µM] | GI50 (MDA-MB-435) | GI50 (OVCAR-3 ovarian) [µM] | GI50 (SK-MEL-5 melanoma) [µM] | GI50 (SK-OV-3 ovarian) [µM] | GI50 (UACC-62 melanoma) [µM]
1 | Cc1cc(C)c(-c2no/c(=N\S(=O)(=O)c3ccc(Cl)cc3)o2)c(C)c1 | > 100 | > 100 µM | > 100 | 56.1 | > 100 µM | > 100 µM | > 100 | 68 µM | > 100 µM | > 100 µM | – | – | – | – | – | – | –
2 | COc1cc(C2c3cc4c(cc3OC(NN)C2C)OCO4)cc(OC)c1O (centres undefined) | 20.1 | 34.2 µM | – | > 100 | – | > 100 µM | 67.8 | 12.7 µM | – | 18.9 µM | 51.3 µM | – | – | – | – | – | –
3 | CC1(C)O[C@@H]2[C@@H](COC(C)(C)O[C@H]2C2SCCCS2)O1 | > 100 | > 100 µM | > 100 | > 100 | > 100 µM | > 100 µM | > 100 | > 100 µM | > 100 µM | > 100 µM | – | – | – | – | – | – | –
4 | O=[N+]([O-])c1cccc2nc3ccccc3c(NCCCCCNc3c4ccccc4nc4cccc([N+](=O)[O-])c34)c12 | 0.0346 | 0.0573 µM and 0.119 µM | 0.0922 | – | 0.259 µM and 0.0288 µM | 0.262 µM and 0.054 µM | 0.348 | 0.255 µM and 0.149 µM | 1.25 µM and 1.14 µM | 0.303 µM and 0.307 µM | 0.39 µM and 1.02 µM | 0.183 | 0.105 µM and 0.0111 µM | 0.0135 | 0.018 | 0.08 | 0.0351
5 | COC(=O)C1CCC(=O)N1CN(C(C)=O)c1cccc(O)c1 (centres undefined) | > 100 | > 100 µM | > 100 | > 100 | > 100 µM | > 100 µM | > 100 | > 100 µM | > 100 µM | > 100 µM | – | – | – | – | – | – | –
6 | COC(CN(C)C(=S)Nc1cccc2ccccc12)OC | > 10 | > 10 µM | > 10 | > 10 | > 10 µM | > 10 µM | > 10 | > 10 µM | > 10 µM | > 10 µM | – | – | – | – | – | – | –
7 | Cn1c2ccccc2c(=O)c2c(O)cc3c(c21)C1OCC(C)(O)C1O3 (centres undefined) | > 100 | > 100 µM | > 100 | > 100 | > 100 µM | – | > 100 | > 100 µM | > 100 µM | – | – | – | – | – | – | – | –
8 | O=c1c(-c2ccccc2)nnc2n(Cc3ccccc3)c3ccccc3n12 | > 100 | > 100 µM | > 100 | > 100 | > 100 µM | – | > 100 | > 100 µM | – | – | > 100 µM | – | – | – | – | – | –
9 | COC(=O)[C@@]12OC[C@]34C([C@@H](O)C1O)[C@@]1(C)CC(=O)C(OC(=O)CC(C)C(F)(F)F)=C(C)C1C[C@H]3OC(=O)[C@H](O)[C@H]42 (some centres undefined) | > 62.5 | > 62.5 µM | > 62.5 | – | – | – | > 62.5 | 22.2 µM | > 62.5 µM | 4.37 µM | – | – | – | – | – | – | –
10 | NNc1nnc(CCCCCCCCc2nnc(NN)n2N)n1N | > 100 | > 100 µM | > 100 | > 100 | > 100 µM | – | 76.7 | > 100 µM | > 100 µM | – | 90.3 µM | – | – | – | – | – | –
11 | O=C1c2ccccc2N2OC3(N4CCOCC4)CCCC3C12c1ccccc1 (centres undefined) | > 100 | > 100 µM | > 100 | – | – | – | > 100 | > 100 µM | > 100 µM | > 100 µM | – | – | – | – | – | – | –
12 | C1CSCCSCCCS[C@@H]2CCCCC2SC1 (some centres undefined) | > 100 | 28.8 µM | > 100 | – | – | > 100 µM | > 100 | > 100 µM | > 100 µM | > 100 µM | – | – | – | – | – | – | –
13 | Cc1[nH]n(-c2nc3c(c(=O)[nH]2)CCCC3)c(=O)c1CCO | > 100 | > 100 µM | > 100 | > 100 | > 100 µM | > 100 µM | > 100 | > 100 µM | > 100 µM | > 100 µM | – | – | – | – | – | – | –
14 | CC(C)(CN1CCCCC1)C(=O)/C=C/c1ccc(Br)cc1 | 8.08 | > 24.7 µM | 12.6 | – | – | 5.51 µM | 6.98 | 12.6 µM | 8.18 µM | > 22.9 µM | – | – | – | – | – | – | –
15 | CCOC(=O)C1(C/C=C\CBr)CCCC1=O (centres undefined) | 40 | 66.5 µM | > 100 | 55.2 | 57.2 µM | – | > 100 | > 100 µM | > 100 µM | 39.8 µM | 80.3 µM | – | – | – | – | – | –
16 | CCN(CC)CCNc1ccc([N+](=O)[O-])c2nc3ccc(OC)cc3c(NCCN(CC)CC)c12 | 2.13 | 2.52 µM | 2.63 | 2.71 | > 4.78 µM | 4.95 µM | > 4.16 | 2.98 µM | > 10 µM | > 10 µM | – | – | – | – | – | – | –
17 | Cc1nc2c(sc3nc4c(cc32)CCC4)c(=O)o1 | > 100 | 99.6 µM | > 100 | > 100 | 99.3 µM | > 100 µM | > 93.7 | > 100 µM | > 100 µM | > 100 µM | – | – | – | – | – | – | –
